# Test results published in patent US20100203531A1, “PREDICTING RESPONSIVENESS TO TEMOZOLOMIDE” (priority 2007, published 2010).
# Key:
# Assay type in all cases: in vivo, human
# GBM6 xenograft = experiment: Orthotopic intracranial xenograft survival, GBM6
# Protocol: (§1) In vivo sensitivity of GBM lines to TMZ: To address whether MGMT methylation or polypeptide expression status are predictive of TMZ responsiveness, the effects of TMZ therapy on survival were evaluated in the panel of xenografts using an orthotopic therapy model. […] This TMZ dosing regimen provides the equivalent dose-exposure to TMZ as the standard adjuvant TMZ dosing regimen for GBM patients of 200 mg/m^2×5 days. All mice were followed until reaching a moribund state, and the relative prolongation of survival following TMZ treatment was calculated for each line relative to placebo treatment (Table 1). […] Further analysis of the relationship between TMZ responsiveness and MGMT methylation status in 17 xenograft lines was conducted by comparing the distribution of median survival prolongation results for methylation-positive and methylation-negative groups of xenografts. From this analysis, MGMT methylation was modestly associated with increased TMZ sensitivity (FIG. 2, p=0.039, two-sample rank sum test). In a similar analysis of MGMT polypeptide expression levels, high levels of MGMT polypeptide expression were invariably associated with relative TMZ resistance, and the absence of MGMT polypeptide expression was associated with significant TMZ sensitivity (r=−0.73, p=0.005). […] While p53, PTEN and EGFR function have been linked to TMZ sensitivity in some models, no correlation between genetic alterations of these genes and TMZ responsiveness was observed.
# (§2) Orthotopic model: Therapy evaluations were conducted using an orthotopic tumor model as described elsewhere (Sarkaria et al., Clin Cancer Res, 12:2264-2271 (2006), Giannini et al., Neuro-Oncology, 7:164-176, (2005)). Athymic nude mice (NCI, Frederick, Md.) with established intracranial tumors were randomized into groups of 8 to 10 mice each and treatment was initiated 2 weeks before mice were expected to become moribund. TMZ was purchased from the Mayo Clinic Pharmacy, suspended in Ora-plus (Paddock Laboratories, Minneapolis. […] Mice were observed daily and euthanized when moribund.
# (§3) Statistical analysis: Survival distributions were estimated using the Kaplan-Meier method. The log rank test was used to compare survival across treatment groups. All GBM experiments were pooled and Classification and Regression Tree analysis (CART) was used to identify which CpG sites in the MS-PCR assay (CpG sites 78-82, 86-89) were predictive of overall survival in TMZ treated mice. The two-sample rank sum test was used to compare relative differences in survival relative to MGMT MS-PCR status or CpG89 methylation status. Spearman's correlation coefficient was used to assess the association of relative median survival and protein expression levels of MGMT relative to 13-actin.
# GBM16 xenograft = experiment: Orthotopic intracranial xenograft survival, GBM16; settings: for Survival Prolongation: median survival relative to placebo, 66 mg/kg oral for 5 days (Table 3), 66 mg/kg
# Protocol: (§4) In vivo sensitivity of GBM lines to TMZ: To address whether MGMT methylation or polypeptide expression status are predictive of TMZ responsiveness, the effects of TMZ therapy on survival were evaluated in the panel of xenografts using an orthotopic therapy model. Mice with established intracranial xenografts were treated with 66 mg/kg TMZ or placebo daily for 5 days by oral gavage. This TMZ dosing regimen provides the equivalent dose-exposure to TMZ as the standard adjuvant TMZ dosing regimen for GBM patients of 200 mg/m^2×5 days. All mice were followed until reaching a moribund state, and the relative prolongation of survival following TMZ treatment was calculated for each line relative to placebo treatment (Table 1). […] Further analysis of the relationship between TMZ responsiveness and MGMT methylation status in 17 xenograft lines was conducted by comparing the distribution of median survival prolongation results for methylation-positive and methylation-negative groups of xenografts. From this analysis, MGMT methylation was modestly associated with increased TMZ sensitivity (FIG. 2, p=0.039, two-sample rank sum test). In a similar analysis of MGMT polypeptide expression levels, high levels of MGMT polypeptide expression were invariably associated with relative TMZ resistance, and the absence of MGMT polypeptide expression was associated with significant TMZ sensitivity (r=−0.73, p=0.005). […] While p53, PTEN and EGFR function have been linked to TMZ sensitivity in some models, no correlation between genetic alterations of these genes and TMZ responsiveness was observed.
# (§5) Orthotopic model: Therapy evaluations were conducted using an orthotopic tumor model as described elsewhere (Sarkaria et al., Clin Cancer Res, 12:2264-2271 (2006), Giannini et al., Neuro-Oncology, 7:164-176, (2005)). Athymic nude mice (NCI, Frederick, Md.) with established intracranial tumors were randomized into groups of 8 to 10 mice each and treatment was initiated 2 weeks before mice were expected to become moribund. TMZ was purchased from the Mayo Clinic Pharmacy, suspended in Ora-plus (Paddock Laboratories, Minneapolis. MN), and administered by oral gavage at 66 mg/kg for 5 days. Mice were observed daily and euthanized when moribund.
# as §3
# GBM28 / GS28 xenograft = experiment: Orthotopic intracranial xenograft survival, GBM28 (GS28)
# Protocol: as §4, §5
# as §3, with “Spearman's correlation coefficient was used to assess the association of relative median survival and protein expression levels of MGMT relative to 13-actin.” left out
# GBM34 xenograft = experiment: Orthotopic intracranial xenograft survival, GBM34
# Protocol: as §4, §5
# as §3, with “Spearman's correlation coefficient was used to assess the association of relative median survival and protein expression levels of MGMT relative to 13-actin.” left out
# GBM36 xenograft = experiment: Orthotopic intracranial xenograft survival, GBM36
# Protocol: as §4, §5
# as §3, with “Spearman's correlation coefficient was used to assess the association of relative median survival and protein expression levels of MGMT relative to 13-actin.” left out
# GBM43 xenograft = experiment: Orthotopic intracranial xenograft survival, GBM43
# Protocol: as §4, §2, §3
# GBM44 xenograft = experiment: Orthotopic intracranial xenograft survival, GBM44
# Protocol: as §1, §2, §3
compound,measurement,setting,value
"Cn1nnc2c(C(N)=O)ncn2c1=O [TMZ, Temozolomide]",Survival Prolongation,"GBM6 xenograft; GBM6, median survival relative to placebo, 66 mg/kg oral for 5 days (Table 3)",37%
same,Survival benefit,"GBM6 xenograft; GBM6, prolongation of median survival relative to placebo, TMZ 66 mg/kg oral x5 days",37%
same,Survival benefit,"GBM6 xenograft; GBM6 generation 20, TMZ 120 mg/kg for 5 days, intracranial",67%
same,Survival benefit,"GBM6 xenograft; GBM6 generation 24, TMZ 66 mg/kg for 5 days, intracranial",21%
same,TMZ median survival,"GBM6 xenograft; GBM6 intracranial xenograft, nude mice, TMZ 66 mg/kg oral daily x5 days",56
same,Temozolomide median survival,"GBM6 xenograft; GBM6 intracranial, athymic nude mice, 66 mg/kg oral gavage for 5 days (Table 3)",56
same,Survival Prolongation,GBM16 xenograft; GBM16,579%
same,Survival Prolongation,"GBM16 xenograft; GBM16, listed as Temozolomide",579%
same,Survival benefit,"GBM16 xenograft; GBM16, prolongation of median survival relative to placebo, TMZ 66 mg/kg oral x5 days",579%
same,TMZ median survival,"GBM16 xenograft; GBM16 intracranial xenograft, nude mice, TMZ 66 mg/kg oral daily x5 days",300
same,Temozolomide median survival,"GBM16 xenograft; GBM16 intracranial, athymic nude mice, 66 mg/kg oral gavage for 5 days (Table 3)",326
same,Survival benefit,"GBM28 / GS28 xenograft; GBM28, prolongation of median survival relative to placebo, TMZ 66 mg/kg oral x5 days",70%
same,TMZ median survival,"GBM28 / GS28 xenograft; GBM28 intracranial xenograft, nude mice, TMZ 66 mg/kg oral daily x5 days",56
same,Survival Prolongation,"GBM28 / GS28 xenograft; GS28, median survival relative to placebo, 66 mg/kg oral for 5 days (Table 3)",70%
same,Temozolomide median survival,"GBM28 / GS28 xenograft; GS28 intracranial, athymic nude mice, 66 mg/kg oral gavage for 5 days (Table 3)",56
same,Survival Prolongation,"GBM34 xenograft; GBM34, median survival relative to placebo, 66 mg/kg oral for 5 days (Table 3)",294%
same,Survival benefit,"GBM34 xenograft; GBM34, prolongation of median survival relative to placebo, TMZ 66 mg/kg oral x5 days",294%
same,TMZ median survival,"GBM34 xenograft; GBM34 intracranial xenograft, nude mice, TMZ 66 mg/kg oral daily x5 days",351
same,Temozolomide median survival,"GBM34 xenograft; GBM34 intracranial, athymic nude mice, 66 mg/kg oral gavage for 5 days (Table 3)",351
same,Survival Prolongation,"GBM36 xenograft; GBM36, median survival relative to placebo, 66 mg/kg oral for 5 days (Table 3)",82%
same,Survival benefit,"GBM36 xenograft; GBM36, prolongation of median survival relative to placebo, TMZ 66 mg/kg oral x5 days",82%
same,TMZ median survival,"GBM36 xenograft; GBM36 intracranial xenograft, nude mice, TMZ 66 mg/kg oral daily x5 days",214
same,Temozolomide median survival,"GBM36 xenograft; GBM36 intracranial, athymic nude mice, 66 mg/kg oral gavage for 5 days (Table 3)",229
same,Survival Prolongation,"GBM43 xenograft; GBM43, median survival relative to placebo, 66 mg/kg oral for 5 days (Table 3)",87%
same,Survival benefit,"GBM43 xenograft; GBM43, prolongation of median survival relative to placebo, TMZ 66 mg/kg oral x5 days",87%
same,Survival benefit,"GBM43 xenograft; GBM43 generation 6, TMZ 120 mg/kg for 5 days, intracranial",104%
same,Survival benefit,"GBM43 xenograft; GBM43 generation 10, TMZ 66 mg/kg for 5 days, intracranial",83%
same,TMZ median survival,"GBM43 xenograft; GBM43 intracranial xenograft, nude mice, TMZ 66 mg/kg oral daily x5 days",43
same,Temozolomide median survival,"GBM43 xenograft; GBM43 intracranial, athymic nude mice, 66 mg/kg oral gavage for 5 days (Table 3)",43
same,Survival Prolongation,"GBM44 xenograft; GBM44, median survival relative to placebo, 66 mg/kg oral for 5 days (Table 3)",60%
same,Survival benefit,"GBM44 xenograft; GBM44, prolongation of median survival relative to placebo, TMZ 66 mg/kg oral x5 days",60%
same,Survival benefit,"GBM44 xenograft; GBM44 generation 5, TMZ 120 mg/kg for 5 days, intracranial",−7%
same,Survival benefit,"GBM44 xenograft; GBM44 generation 12, TMZ 66 mg/kg for 5 days, intracranial",60%
same,TMZ median survival,"GBM44 xenograft; GBM44 intracranial xenograft, nude mice, TMZ 66 mg/kg oral daily x5 days",56
same,Temozolomide median survival,"GBM44 xenograft; GBM44 intracranial, athymic nude mice, 66 mg/kg oral gavage for 5 days (Table 3)",56
